Experimental data as given in ChEMBL document CHEMBL4184293, “Structure-based design and biological evaluation of inhibitors of the pseudomonas aeruginosa heme oxygenase (pa-HemO)” (Bioorg Med Chem Lett, 2018).
The source made the active and inactive calls. The calls are words filed in the database; no cut-off is given here.

What was measured:
Heme oxygenase = target: T1, Heme oxygenase (Pseudomonas aeruginosa, UniProt O69002); assay: Binding affinity to Pseudomonas aeruginosa HemO by intrinsic fluorescence quenching assay
T1 sequence (O69002 whole entry): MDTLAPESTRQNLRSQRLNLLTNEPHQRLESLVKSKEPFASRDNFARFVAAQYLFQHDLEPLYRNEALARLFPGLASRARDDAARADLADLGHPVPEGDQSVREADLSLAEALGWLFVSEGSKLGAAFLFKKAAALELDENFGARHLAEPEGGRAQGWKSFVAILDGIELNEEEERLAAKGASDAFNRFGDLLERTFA

Pseudomonas aeruginosa [1] = assay: Antibacterial activity against Pseudomonas aeruginosa PAO1 after 4 hrs in presence of heme or FeCl3; format: functional
Pseudomonas aeruginosa [2] = assay: Antibiofilm activity against Pseudomonas aeruginosa PAO1 after 24 hrs by crystal violet staining based assay; format: functional
[3] = target: T2, Heme oxygenase (Pseudomonas aeruginosa) (UniProt O69002); assay: Binding affinity to Pseudomonas aeruginosa HemO assessed as chemical shift perturbations after 2 hrs by 15N-1H TROSY HSQC NMR method
T2 sequence (whole entry): T1 sequence (O69002 whole entry)

[4] = target: T2, Heme oxygenase (Pseudomonas aeruginosa); assay: Binding affinity to Pseudomonas aeruginosa HemO by STD-NMR method

SMILES | Kd (Heme oxygenase) | further results
O=C(O)CCN1C(=O)/C(=C/c2ccc(Cl)c(Cl)c2)SC1=S | 14 µM | 
O=C1/C(=C/c2ccc(O)c(O)c2)SC(=S)N1CCc1nnn[nH]1 | 45 µM | 
O=C(O)CCN1C(=O)/C(=C/c2ccc(O)c(O)c2)SC1=S | 57 µM | 
O=C1NC(=S)SC1=Cc1ccc(-c2ccccc2)cc1 | 2.3 µM | MIC50 (Pseudomonas aeruginosa [1]): inactive; MBEC99.9 (Pseudomonas aeruginosa [2]): >300 µg/mL
O=C(O)CCN1C(=O)/C(=C/c2ccc(F)cc2)SC1=S | 44 µM | 
O=C(O)CCN1C(=O)/C(=C/c2ccc(Cc3ccccc3)cc2)SC1=S | 7 µM | 
O=C(O)CCN1C(=O)C(=Cc2cccc3ccccc23)SC1=S | 13 µM | 
O=C(O)CCN1C(=O)C(=Cc2ccc(-c3cccc(O)c3)o2)SC1=S | 1.1 µM | MIC50 (Pseudomonas aeruginosa [1]; PAO1, 4 h): > 300 µg/mL; MBEC99.9 (Pseudomonas aeruginosa [2]): >300 µg/mL; Activity [3]: Active
COc1cccc(/C=C2\SC(=S)N(CCC(=O)O)C2=O)c1 | 25 µM | 
O=C(O)CCN1C(=O)/C(=C/c2ccc(Oc3ccccc3)cc2)SC1=S | 6.5 µM | 
O=C1/C(=C/c2ccco2)SC(=S)N1CCc1nn[nH]n1 | 26 µM | 
NCCN1C(=O)/C(=C/c2ccc(-c3ccccc3)cc2)SC1=S | 43 µM | MIC50 (Pseudomonas aeruginosa [1]; PAO1, 4 h): > 300 µg/mL; MBEC99.9 (Pseudomonas aeruginosa [2]): >300 µg/mL
O=C(O)CCN1C(=O)/C(=C/c2ccccn2)SC1=S | 51 µM | 
COC(=O)c1cc(-c2ccc(C=C3SC(=S)N(CCC(=O)O)C3=O)o2)ccc1N | 6.5 µM | 
CN(C)CCN1C(=O)C(=Cc2ccc(-c3ccccc3)cc2)SC1=S | 18 µM | MIC50 (Pseudomonas aeruginosa [1]): inactive; MBEC99.9 (Pseudomonas aeruginosa [2]): >300 µg/mL
O=C(O)CCN1C(=O)/C(=C/c2ccc(Cl)cc2)SC1=S | 15 µM | 
O=C(O)CCN1C(=O)/C(=C/c2cccc(Nc3ccccc3)c2)SC1=S | 1.2 µM | MIC50 (Pseudomonas aeruginosa [1]; PAO1, 4 h): > 300 µg/mL; MBEC99.9 (Pseudomonas aeruginosa [2]): >300 µg/mL; Activity [3]: Active
O=C1Nc2ccc(Cl)cc2/C1=C\c1ccc(-c2ccccc2)cc1 | 5.2 µM | MIC50 (Pseudomonas aeruginosa [1]): inactive; MBEC99.9 (Pseudomonas aeruginosa [2]): >300 µg/mL
O=C(O)CCN1C(=O)C(=Cc2cccc(-c3ccccc3)c2)SC1=S | 20 µM | 
O=C1/C(=C/c2ccccn2)SC(=S)N1CCc1nnn[nH]1 | 27 µM | Activity [4]: Active; Activity [3]: Active
COC(=O)c1ccc(-c2ccc(C=C3SC(=S)N(CCC(=O)O)C3=O)o2)cc1 | 28 µM | 
O=C(O)CCN1C(=O)/C(=C/c2cn(Cc3ccccc3)c3ccccc23)SC1=S | 7.4 µM | 
O=C(O)CCN1C(=O)/C(=C/c2c[nH]c3ccccc23)SC1=S | 6.4 µM | 
N#Cc1cccc(-c2ccc(C=C3SC(=S)N(CCC(=O)O)C3=O)o2)c1 | 13 µM | 
COc1ccc(/C=C2\SC(=S)N(CCC(=O)O)C2=O)cc1 | 23 µM | 
O=C(O)CCN1C(=O)/C(=C/c2ccco2)SC1=S | 38 µM | 
CC(C)c1ccc(/C=C2\SC(=S)N(CCC(=O)O)C2=O)cc1 | 10 µM | 
O=C(O)CCN1C(=O)C(=Cc2ccc3ccccc3c2)SC1=S | 3.9 µM | 
O=C(O)CCN1C(=O)C(=Cc2ccc(-c3ccccc3)cc2)SC1=S | 3.3 µM | MIC50 (Pseudomonas aeruginosa [1]; PAO1, 4 h): > 300 µg/mL; MBEC99.9 (Pseudomonas aeruginosa [2]): >300 µg/mL; Activity [3]: Active
COC(=O)c1cccc(-c2ccc(C=C3SC(=S)N(CCC(=O)O)C3=O)o2)c1 | 7.6 µM | 
